Data: patent US6365598B1, “Pyrroloquinolines for treatment of obesity” (Vernalis Research Limited, priority 1998, dated 2002)
Structures can show the parent of a compound that is named as a salt.

Columns and labels:
human 5-HT2B receptors = molecular target: T1, human 5-HT2B receptors (Homo sapiens, UniProt P41595); test: Binding to 5-HT2B receptor, [3H]-5-HT, CHO cell line; settings: read-out: Ki (2B)
T1 construct: expressed in transfected cells; host or cells: CHO cell line
Procedure: (§1) 1. Binding to Serotonin Receptors
(§2) The binding of compounds of formula (I) to serotonin receptors was determined in vitro by standard methods. The preparations were investigated in accordance with the assays given hereinafter.
Method (b): For the binding to the 5-HT2B receptor the 5-HT2B receptors were radiolabeled with [^3H]-5-HT. The affinity of the compounds for human 5-HT2B receptors in a CHO cell line was determined according to the procedure of K. Schmuck, C. Ullmer, P. Engels and H. Lubbert, FEBS Lett., 1994, 342, 85-90.

food deprived animals = test: Regulation of feeding behaviour: food consumption in food deprived animals; format: in vivo; settings: 2 hours after a dose of 10 mg/kg s.c.
Procedure: 4. Regulation of Feeding Behaviour
The in vivo activity of compounds of formula (I) on feeding behaviour was assayed by measuring food consumption in food deprived animals.
Test compounds were assessed following acute administration. Each study utilised a between-subjects design (typically n=8) and compared the effects of doses of the test agent to those of vehicle and a positive control.
The anorectic drug d-fenfluramine normally serves as a positive control. The route of drug administration, drug volume and injection-test-interval are dependent upon the compounds used. A palatable wet mash, made by adding powdered lab chow and water in a ratio of 1:2 and mixing to a smooth consistency, was presented in 120 ML glass jars for 60 minutes each day. Intake was measured by weighing before and after each session. Care was taken to collect all spillage. Animals were allowed to habituate to the wet mash meal for 10 days. After drug administration, animals were allowed to consume the wet mash. Food consumption was assayed at pre-determined time points (typically 1, 2 and 4 hours after administration). Food intake data were subjected to one-way analysis of variance (ANOVA) with drug as a between-subjects factor. […] All statistical analyses were performed using Statistica Software, Version 5.0 (Statsoft Inc.) and Microsoft Excel 7.0 (Microsoft Corp.).

5-HT2A receptors [1] = molecular target: T2, 5-HT2A receptors (Homo sapiens, UniProt P28223); test: Functional activity, FLIPR calcium assay, CHO cells expressing human 5-HT2A; format: cell-based; set-up: expressed in transfected cells; host or cells: CHO cells; settings: for EC50: FLIPR, CHO cells, Fluo-3-AM, read-out: h5-HT2A EC50; for h5-HT2A Relative Efficacy (%): maximum fluorescent signal relative to 10 μM 5-HT (defined as 100%)
Procedure: (§3) The functional activity of compounds of formula (I) was assayed using a Fluorimetric Imaging Plate reader (FLIPR). CHO cells expressing the human 5-HT2C or human 5-HT2A receptors were counted and plated into standard 96 well microtitre plates on the day before testing to give a confluent monolayer. The cells were then dye loaded with the calcium sensitive dye, Fluo-3-AM. Unincorporated dye was removed using an automated cell washer to leave a total volume of 100 μL/well of assay buffer (Hanks balanced salt solution containing 20 mM Hepes and 2.5 mM probenecid). The drug (dissolved in 50 μL of the assay buffer) was added at a rate of 70 μL/sec to each well of the FLIPR 96 well plate during fluorescence measurements. The measurements were taken at 1 sec intervals and the maximum fluorescent signal was measured (approx 10-15 secs after drug addition) and compared with the response produced by 10 μM 5-HT (defined as 100%) to which it was expressed as a percentage response (relative efficacy). Dose response curves were constructed using Graphpad Prism (Graph Software Inc.).

5-HT2c receptors [2] = molecular target: T3, 5-HT2c receptors (Homo sapiens, UniProt P28335); test: Functional activity, FLIPR calcium assay, CHO cells expressing human 5-HT2C; format: cell-based; set-up: expressed in transfected cells; host or cells: CHO cells; settings: for EC50: FLIPR, CHO cells, Fluo-3-AM, read-out: h5-HT2C EC50; for h5-HT2C Relative Efficacy (%): maximum fluorescent signal relative to 10 μM 5-HT (defined as 100%)
T3 sequence (P28335 33-458): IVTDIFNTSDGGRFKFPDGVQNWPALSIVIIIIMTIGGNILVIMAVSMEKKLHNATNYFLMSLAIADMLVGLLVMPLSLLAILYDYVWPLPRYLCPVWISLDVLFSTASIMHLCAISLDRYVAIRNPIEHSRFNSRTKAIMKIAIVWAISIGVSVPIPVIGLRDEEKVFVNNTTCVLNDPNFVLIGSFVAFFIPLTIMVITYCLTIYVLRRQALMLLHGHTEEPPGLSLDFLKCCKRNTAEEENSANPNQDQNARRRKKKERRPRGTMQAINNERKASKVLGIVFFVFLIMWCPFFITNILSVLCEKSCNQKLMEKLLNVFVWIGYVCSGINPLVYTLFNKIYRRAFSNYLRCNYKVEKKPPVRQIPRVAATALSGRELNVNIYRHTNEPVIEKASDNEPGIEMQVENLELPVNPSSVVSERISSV
Procedure: as §3

5-HT2c receptors [3] = molecular target: T3, 5-HT2c receptors; test: Binding to 5-HT2C receptor, [3H]-5-HT, CHO cell line; set-up: expressed in transfected cells; host or cells: CHO cell line; settings: read-out: Ki (2C)
Procedure: as §1, §2
Method (a): For the binding to the 5-HT2c, receptor the 5-HT2c receptors were radiolabeled with [^3H]-5-HT. The affinity of the compounds for 5-HT2c receptors in a CHO cell line was determined according to the procedure of D. Hoyer, G. Engel and H. O. Kalkman, European J. Pharmacol., 1985, 118,13-23.

5-HT2A receptors [4] = molecular target: T2, 5-HT2A receptors; test: Binding to 5-HT2A receptor, [125I]-DOI, CHO cell line; set-up: expressed in transfected cells; host or cells: CHO cell line; settings: read-out: Ki (2A)
Procedure: as §1, §2
Method (c): For the binding to the 5-HT2A receptor the 5-HT2A receptors were radiolabeled with [^125I]-DOI. The affinity of the compounds for 5-HT2A receptors in a CHO cell line was determined according to the procedure of D. J. McKenna and S. J. Peroutka, J. Neurosci., 1989, 9, 3482-90.

T2 sequence (P28223 whole entry): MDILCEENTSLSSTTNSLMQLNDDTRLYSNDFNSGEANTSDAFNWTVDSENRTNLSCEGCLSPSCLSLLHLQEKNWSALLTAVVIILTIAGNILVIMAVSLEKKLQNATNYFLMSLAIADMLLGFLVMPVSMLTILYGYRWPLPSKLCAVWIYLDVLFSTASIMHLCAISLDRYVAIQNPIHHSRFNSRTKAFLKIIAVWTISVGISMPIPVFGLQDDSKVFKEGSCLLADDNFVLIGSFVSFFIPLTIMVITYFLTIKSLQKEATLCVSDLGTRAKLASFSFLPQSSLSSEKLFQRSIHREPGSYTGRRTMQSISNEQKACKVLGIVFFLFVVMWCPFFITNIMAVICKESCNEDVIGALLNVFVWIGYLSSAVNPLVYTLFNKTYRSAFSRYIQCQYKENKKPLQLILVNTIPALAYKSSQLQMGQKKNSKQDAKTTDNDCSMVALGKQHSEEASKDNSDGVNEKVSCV
T1 sequence (P41595 whole entry): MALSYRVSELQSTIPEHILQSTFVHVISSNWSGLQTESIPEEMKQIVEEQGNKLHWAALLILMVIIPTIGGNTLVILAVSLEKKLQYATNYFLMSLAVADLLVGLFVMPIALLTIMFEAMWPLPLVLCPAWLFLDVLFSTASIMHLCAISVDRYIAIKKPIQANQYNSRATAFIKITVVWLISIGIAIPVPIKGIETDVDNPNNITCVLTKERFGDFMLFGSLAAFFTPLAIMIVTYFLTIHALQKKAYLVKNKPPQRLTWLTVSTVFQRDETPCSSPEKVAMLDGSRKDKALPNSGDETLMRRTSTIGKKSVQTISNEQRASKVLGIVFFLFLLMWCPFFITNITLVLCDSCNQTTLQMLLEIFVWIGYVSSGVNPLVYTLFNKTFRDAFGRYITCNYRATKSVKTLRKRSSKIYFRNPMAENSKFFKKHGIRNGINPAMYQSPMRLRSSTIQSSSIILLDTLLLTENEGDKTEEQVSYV

Compound: C[C@H](N)Cn1ccc2ccc3ncccc3c21 [Example 1, (S)-1-(1H-Pyrrolo[2,3-f]quinolin-1-yl)-2-propylamine]
- Ki (human 5-HT2B receptors): 12 nM
- hypophagia (food consumption) (food deprived animals): significant hypophagia
- EC50 (5-HT2A receptors [1]): 360 nM
- h5-HT2A Relative Efficacy (%) (5-HT2A receptors [1]): 100%
- EC50 (5-HT2c receptors [2]): 12 nM
- h5-HT2C Relative Efficacy (%) (5-HT2c receptors [2]): 93%
- Ki (5-HT2c receptors [3]): 9 nM
- Ki (5-HT2A receptors [4]): 45 nM

Compound: CC(N)Cn1ccc2ccc3ncccc3c21 (racemic) [Example 3, (RS)-1-(1H-Pyrrolo[2,3-f]quinolin-1-yl)-2-propylamine hydrochloride]
- Ki (human 5-HT2B receptors): 9 nM
- Ki (5-HT2c receptors [3]): 24 nM
- Ki (5-HT2A receptors [4]): 40 nM

Compound: C[C@H](N)Cn1ccc2cc(Cl)c3ncccc3c21 (as salt: fumarate) [Example 5, (S)-1-(5-Chloro-1H-pyrrolo[2,3-f]-quinolin-1-yl)-2-propylamine fumarate]
- melting point: 228 to 229 °C

Compound: C[C@H](N)Cn1ccc2cc(Cl)c3ncccc3c21 [Example 5, (S)-1-(5-Chloro-1H-pyrrolo[2,3-f]-quinolin-1-yl)-2-propylamine fumarate]
- EC50 (5-HT2A receptors [1]): 52 nM
- h5-HT2A Relative Efficacy (%) (5-HT2A receptors [1]): 80%
- EC50 (5-HT2c receptors [2]): 5 nM
- h5-HT2C Relative Efficacy (%) (5-HT2c receptors [2]): 86%

Compound: C[C@H](N)Cn1ccc2ccc3cnccc3c21 [Example 4, (S)-1-(1H-Pyrrolo[2,3-f]isoquinolin-1-yl)-2-propylamine fumarate]
- Ki (human 5-HT2B receptors): 84 nM
- EC50 (5-HT2A receptors [1]): 870 nM
- h5-HT2A Relative Efficacy (%) (5-HT2A receptors [1]): 54%
- EC50 (5-HT2c receptors [2]): 142 nM
- h5-HT2C Relative Efficacy (%) (5-HT2c receptors [2]): 89%
- Ki (5-HT2c receptors [3]): 156 nM
- Ki (5-HT2A receptors [4]): 173 nM

Compound: C[C@@H](N)Cn1ccc2ccc3ncccc3c21 [Example 2, (R)-1-(1H-Pyrrolo[2,3-f]quinolin-1-yl)-2-propylamine]
- Ki (human 5-HT2B receptors): 5 nM
- hypophagia (food consumption) (food deprived animals): significant hypophagia
- EC50 (5-HT2A receptors [1]): 87 nM
- h5-HT2A Relative Efficacy (%) (5-HT2A receptors [1]): 96%
- EC50 (5-HT2c receptors [2]): 7 nM
- h5-HT2C Relative Efficacy (%) (5-HT2c receptors [2]): 85%
- Ki (5-HT2c receptors [3]): 22 nM
- Ki (5-HT2A receptors [4]): 37 nM

Compound: C[C@H](N)Cn1ccc2ccc3ccncc3c21 [Example 7, (S)-1-(1H-Pyrrolo[3,2-h]isoquinolin-1-yl)-2-propylamine fumarate]
- EC50 (5-HT2A receptors [1]): 636 nM
- h5-HT2A Relative Efficacy (%) (5-HT2A receptors [1]): 61%
- EC50 (5-HT2c receptors [2]): 36 nM
- h5-HT2C Relative Efficacy (%) (5-HT2c receptors [2]): 83%

Compound: C[C@@H](N)Cn1ccc2ccc3ncccc3c21 (as salt: hydrochloride) [Example 2, (R)-1-(1H-Pyrrolo[2,3-f]quinolin-1-yl)-2-propylamine]
- melting point: 223 to 225 °C

Compound: C[C@@H](Cn1ccc2ccc3ncccc3c21)NCc1ccc2c(c1)OCO2 [Example 9, (S)-[1-(1H-Pyrrolo[2,3-f]quinolin-1-yl)-2-propyl]-(3,4-methylenedioxybenzyl)amine bis-fumarate]
- EC50 (5-HT2A receptors [1]): 1300 nM
- h5-HT2A Relative Efficacy (%) (5-HT2A receptors [1]): 65%
- EC50 (5-HT2c receptors [2]): 85 nM
- h5-HT2C Relative Efficacy (%) (5-HT2c receptors [2]): 90%

Compound: C[C@H](N)Cn1ccc2ccc3cccnc3c21 [Example 8, (S)-1-(1H-Pyrrolo[3,2-h]quinolin-1-yl)-2-propylamine hemifumarate]
- Ki (human 5-HT2B receptors): 88 nM
- EC50 (5-HT2A receptors [1]): 1070 nM
- h5-HT2A Relative Efficacy (%) (5-HT2A receptors [1]): 31%
- EC50 (5-HT2c receptors [2]): 99 nM
- h5-HT2C Relative Efficacy (%) (5-HT2c receptors [2]): 24%
- Ki (5-HT2c receptors [3]): 45 nM
- Ki (5-HT2A receptors [4]): 90 nM

Compound: C[C@H](N)Cn1ccc2ccc3cccnc3c21 (as salt: fumarate) [Example 8, (S)-1-(1H-Pyrrolo[3,2-h]quinolin-1-yl)-2-propylamine hemifumarate]
- melting point: 212 to 214 °C

Compound: C[C@H](N)Cn1ccc2ccc3cnccc3c21 (as salt: fumarate) [Example 4, (S)-1-(1H-Pyrrolo[2,3-f]isoquinolin-1-yl)-2-propylamine fumarate]
- melting point: 165 °C

Compound: COc1nccc2c1ccc1ccn(C[C@H](C)N)c12 (as salt: fumarate)
- melting point: 180 to 182 °C

Compound: C[C@H](N)Cn1ccc2ccc3ncccc3c21 (as salt: hydrochloride) [Example 1, (S)-1-(1H-Pyrrolo[2,3-f]quinolin-1-yl)-2-propylamine]
- melting point: 222 to 224 °C

Compound: C[C@H](N)Cn1ccc2ccc3ccncc3c21 (as salt: fumarate) [Example 7, (S)-1-(1H-Pyrrolo[3,2-h]isoquinolin-1-yl)-2-propylamine fumarate]
- melting point: 153 to 154 °C
